Patent publication US10045985B2, “Heteroaryl compounds as BTK inhibitors and uses thereof” (Merck Patent GmbH, priority 2015, dated 2018)

Legend:
[1] = biological target: T1, full-length human BTK (Homo sapiens, UniProt Q06187); experiment: Assay A: microfluidic off-chip mobility shift assay for potency against BTK enzyme; type: biochemical; settings: 90 min at 27° C.
T1 construct: full-length human BTK (08-080) from CarnaBio USA, Inc; purchased CarnaBio USA, Inc., Natick, Mass; 08-080
Description: Assay A: Microfluidic Off-Chip Mobility Shift Assay Protocol for Potency Assessment Against BTK Enzyme
The protocol below describes microfluidic, off-chip mobility shift kinase assay to measure inherent potency of compounds against BTK enzyme. The mechanics of the assay platform are best described by the vendor (Caliper Life Sciences, a PerkinElmer Company, Hopkinton, Mass.) on their website at the following URL:
Briefly, 2.5× stocks of full-length human BTK (08-080) from CarnaBio USA, Inc., Natick, Mass., 1.6×ATP and appropriate kinKDR peptide substrate (FITC-AHA-EEPLYWSFPAKKK-NH2; developed in-house) were prepared in kinase reaction buffer consisting of 25 mM MgCl2, 0.015% Brij-35 (30%), 100 mM Hepes, pH 7.5, and 10 mM DTT.
5 uL of enzyme buffer and 7.5 uL of ATP/kinKDR peptide substrate mix were added to Matrix (#115304) 384-well, sterile, polypropylene plates (Thermo Fisher Scientific, Hudson, N.H.) with 125 nL of serially diluted compounds prepared in 100% DMSO, and incubated for 90 min. at 27° C. following the incubation period, reactions were stopped by adding 60 uL stop buffer consisting of 100 mM Hepes, pH 7.5, 0.015% Brij-35 (30%), 0.277% Coating Reagent #3 (Caliper Life Sciences, Mountain View, Calif.), 5% DMSO. Stopped reactions were monitored at −2 PSI, −3000 V/−700 V in a LabChip 3000 plate reader from Caliper Life Sciences, a PerkinElmer Company (Hopkinton, Mass.), and the activity was measured by off-chip mobility shift assay measuring the charge/mass difference between substrate and product resulting from peptide phosphorilation. IC50 and efficacy were determined by plotting log [Inhibitor] vs. % Activity in GeneData Screener (Basel, Switzerland).

[2] = biological target: T2, BTK C481S enzyme (His-TEV-hsBTK(328-659)(C481S)) (Homo sapiens, UniProt Q06187, C481S); experiment: Assay B: microfluidic off-chip mobility shift assay for potency against BTK C481S enzyme; type: biochemical; settings: 90 min at 25° C.
T2 construct: His-TEV-hsBTK(328-659)(C481S); His (N); TEV cleavage site (N)
Description: Assay B: Microfluidic Off-Chip Mobility Shift Assay Protocol for Potency Assessment Against BTK C481S Enzyme
The protocol below describes a microfluidic, off-chip mobility shift kinase assay to measure inherent potency of compounds against BTK C481S enzyme. The mechanics of the assay platform are described by the vendor (PerkinElmer, Hopkinton, Mass.) on their website at the following URL: http://caliperls.com.
Briefly, 2.5× stocks of His-TEV-hsBTK(328-659)(C481S) from the Merck Serono Protein Purification Laboratory in Darmstadt, Germany (PCS, Q27/234), 1.6×ATP and appropriate KinKDR peptide substrate (FITC-AHA-EEPLYWSFPAKKK-NH2; Tufts University Core Facility custom synthesis) were prepared in kinase reaction buffer consisting of 25 mM MgCl2, 0.015% Brij-35 (30%), 100 mM HEPES, pH 7.5, and 10 mM DTT.
5 uL of enzyme buffer and 7.5 uL of ATP/KinKDR peptide substrate mix were added to Matrix (#4315) 384-well, sterile, flat-bottom polypropylene plates (Thermo Fisher Scientific, Hudson, N.H.) with 125 nL of serially diluted compounds prepared in 100% DMSO, and incubated for 90 min. at 25° C. Following the incubation period, reactions were terminated by adding 65 uL quench buffer consisting of 100 mM HEPES, pH 7.5, 0.015% Brij-35 (30%), 0.277% Coating Reagent #3 (PerkinElmer, Mountain View, Calif.), 5% DMSO. Terminated reactions were monitored at −2 PSI, −3000 V/−700 Volts in a LabChip 3000 plate reader from Caliper Life Sciences, a PerkinElmer Company (Hopkinton, Mass.), and the activity was quantified by laser-induced fluorescence measuring the charge/mass difference between substrate and product resulting from peptide phosphorylation. IC50 and efficacy were determined by plotting log [Inhibitor] vs. % Activity in GeneData Screener (Basel, Switzerland).

T1 sequence (Q06187 whole entry): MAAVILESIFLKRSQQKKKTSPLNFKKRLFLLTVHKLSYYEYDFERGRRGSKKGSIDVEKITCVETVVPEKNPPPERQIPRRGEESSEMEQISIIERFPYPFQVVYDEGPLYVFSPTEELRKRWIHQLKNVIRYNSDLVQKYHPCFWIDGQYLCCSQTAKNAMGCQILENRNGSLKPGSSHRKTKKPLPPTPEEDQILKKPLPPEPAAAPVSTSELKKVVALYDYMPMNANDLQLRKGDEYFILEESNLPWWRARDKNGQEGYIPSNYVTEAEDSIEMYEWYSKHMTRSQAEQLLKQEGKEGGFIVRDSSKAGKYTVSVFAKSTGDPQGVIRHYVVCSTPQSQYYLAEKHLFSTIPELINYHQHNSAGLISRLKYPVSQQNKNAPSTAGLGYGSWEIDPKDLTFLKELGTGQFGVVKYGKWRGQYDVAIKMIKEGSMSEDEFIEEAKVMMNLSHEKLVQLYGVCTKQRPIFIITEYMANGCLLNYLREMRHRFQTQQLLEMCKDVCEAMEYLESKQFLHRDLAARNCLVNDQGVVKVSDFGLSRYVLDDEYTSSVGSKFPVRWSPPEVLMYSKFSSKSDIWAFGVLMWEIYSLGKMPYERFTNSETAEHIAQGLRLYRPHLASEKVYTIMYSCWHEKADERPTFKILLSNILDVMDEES
T2 sequence (Q06187 328-659 C481S): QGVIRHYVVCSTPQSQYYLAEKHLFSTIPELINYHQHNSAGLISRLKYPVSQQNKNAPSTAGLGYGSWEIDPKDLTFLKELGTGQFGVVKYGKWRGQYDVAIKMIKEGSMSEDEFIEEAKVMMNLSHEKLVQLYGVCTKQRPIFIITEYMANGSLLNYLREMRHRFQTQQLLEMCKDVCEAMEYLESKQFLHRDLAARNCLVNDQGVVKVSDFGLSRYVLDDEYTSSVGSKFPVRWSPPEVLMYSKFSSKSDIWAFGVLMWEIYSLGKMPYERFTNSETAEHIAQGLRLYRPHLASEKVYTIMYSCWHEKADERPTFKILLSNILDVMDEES

SMILES | IC50 [1] | IC50 [2]
COCCOc1ccc(Nc2ncc(F)c(NC3CCCC(NC(=O)c4ccc(C(C)(C)C)cc4)C3)n2)cc1 (racemic) [Compound 3, 4-(tert-butyl)-N-(3-((5-fluoro-2-((4-(2-methoxyethoxy)phenyl)amino)pyrimidin-4-yl)amino)cyclohexyl)benzamide] | 0.1 to 1 µM | 100 to 1000 nM
COCCOc1ccc(Nc2ncc(F)c(NC3CCCC(NC(=O)CNc4cccc(Cl)c4)C3)n2)cc1 (racemic) [Compound 5] | 1 to 5 µM | 1000 to 5000 nM
COCCOc1ccc(Nc2ncc(F)c(N3CCCC(CNC(=O)c4ccc(C(C)(C)C)cc4)C3)n2)cc1 (racemic) [Compound 7, 4-(tert-butyl)-N-((1-(5-fluoro-2-((4-(2-methoxyethoxy)phenyl)amino)pyrimidin-4-yl)piperidin-3-yl)methyl)benzamide] | > 5 µM | 
COCCOc1ccc(Nc2ncc(F)c(NCC3CCN(C(=O)c4ccc(C(C)(C)C)cc4)C3)n2)cc1 (racemic) [Compound 8, (4-(tert-butyl)phenyl)(3-(((5-fluoro-2-((4-(2-methoxyethoxy)phenyl)amino)pyrimidin-4-yl)amino)methyl)pyrrolidin-1-yl)methanone] | > 5 µM | 
COCCOc1ccc(Nc2ncc(F)c(N3CCC(CNC(=O)c4ccc(C(C)(C)C)cc4)C3)n2)cc1 (racemic) [Compound 17, 4-(tert-butyl)-N-((1-(5-fluoro-2-((4-(2-methoxyethoxy)phenyl)amino)pyrimidin-4-yl)pyrrolidin-3-yl)methyl)benzamide] | > 5 µM | 
COCCOc1ccc(Nc2ncc(F)c(N[C@@H]3CCC[C@@H](NC(=O)c4ccc(C(C)(C)C)cc4)C3)n2)cc1 (racemic) [Compound 19, 4-(tert-butyl)-N-(trans-3-((5-fluoro-2-((4-(2-methoxyethoxy)phenyl)amino)pyrimidin-4-yl)amino)cyclohexyl)benzamide] | < 0.1 µM | < 100 nM
COCCOc1ccc(Nc2ncc(F)c(NC3CCCC(NC(=O)c4cc5c(s4)CCCC5)C3O)n2)cc1 (racemic) [Compound 26] | < 0.1 µM | < 100 nM
COCCOc1ccc(Nc2ncc(F)c(NC3CCCC(NC(=O)c4cc(C(C)(C)C)on4)C3O)n2)cc1 (racemic) [Compound 27] | 0.1 to 1 µM | 100 to 1000 nM
COCCOc1ccc(Nc2ncc(F)c(N3CCC[C@@H](NC(=O)c4ccc(C(C)(C)C)cc4)C3)n2)cc1 [Compound 1, (R)0-4-(tert-butyl)-N-(1-(5-fluoro-2-((4-(2-methoxyethoxy)phenyl)amino)pyrimidin-4-yl)piperidin-3-yl)benzamide] | > 5 µM | 
COCCOc1ccc(Nc2ncc(F)c(N3CCC[C@@H](NC(=O)CNc4cccc(Cl)c4)C3)n2)cc1 [Compound 2, (R)-2-((3-chlorophenyl)amino)-N-(1-(5-fluoro-2-((4-(2-methoxyethoxy)phenyl)amino)pyrimidin-4-yl)piperidin-3-yl)acetamide] | > 5 µM | > 5000 nM
COCCOc1ccc(Nc2ncc(F)c(Nc3cccc(NC(=O)CNc4cccc(Cl)c4)c3)n2)cc1 [Compound 4, 2-((3-chlorophenyl)amino)-N-(3-((5-fluoro-2-((4-(2-methoxyethoxy)phenyl)amino)pyrimidin-4-yl)amino)phenyl)acetamide] | 1 to 5 µM | 100 to 1000 nM
COCCOc1ccc(Nc2ncc(F)c(Nc3cccc(NC(=O)c4ccc(C(C)(C)C)cc4)c3)n2)cc1 [Compound 6] | 1 to 5 µM | 1000 to 5000 nM
COCCOc1ccc(Nc2ncc(F)c(N3CC[C@H](NC(=O)c4ccc(C(C)(C)C)cc4)C3)n2)cc1 [Compound 9, (S)-4-(tert-butyl)-N-(1-(5-fluoro-2-((4-(2-methoxyethoxy)phenyl)amino)pyrimidin-4-yl)pyrrolidin-3-yl)benzamide] | > 5 µM | 
COCCOc1ccc(Nc2ncc(F)c(NC3CCCC(NC(=O)c4ccc(N(C)C)cc4)C3)n2)cc1 (stereo not shown) [Compound 11, 4-Dimethylamino-N-(3-{5-fluoro-2-[4-(2-methoxy-ethoxy)-phenylamino]-pyrimidin-4-ylamino}-cyclohexyl)-benzamide] | 0.1 to 1 µM | 100 to 1000 nM
COCCOc1ccc(Nc2ncc(F)c(NC3CCCC(NC(=O)c4ccc(C(C)(C)O)cc4)C3)n2)cc1 (stereo not shown) [Compound 12, N-(3-{5-Fluoro-2-[4-(2-methoxy-ethoxy)-phenylamino]-pyrimidin-4-ylamino}-cyclohexyl)0-4-(1-hydroxy-1-methyl-ethyl)-benzamide] | 0.1 to 1 µM | 100 to 1000 nM
COCCOc1ccc(Nc2ncc(F)c(NC3CCCC(NC(=O)Cc4ccc(C(C)(C)C)cc4)C3)n2)cc1 (stereo not shown) [Compound 13, 2-(4-tert-Butyl-phenyl)-N-(3-{5-fluoro-2-[4-(2-methoxy-ethoxy)-phenylamino]-pyrimidin-4-ylamino}-cyclohexyl)-acetamide] | > 5 µM | 
COCCOc1ccc(Nc2ncc(F)c(NC3CCCC(NC(=O)c4coc(-c5ccccc5)n4)C3)n2)cc1 (stereo not shown) [Compound 14, 2-Phenyl-oxazole-4-carboxylic acid (3-{5-fluoro-2-[4-(2-methoxy-ethoxy)-phenylamino]-pyrimidin-4-ylamino}-cyclohexyl)-amide] | > 5 µM | 
COCCOc1ccc(Nc2ncc(F)c(N3CCCC4(CCN(C(=O)c5ccc(C(C)(C)C)cc5)C4)C3)n2)cc1 (stereo not shown) [Compound 15, (4-(tert-butyl)phenyl)(7-(5-fluoro-2-((4-(2-methoxyethoxy)phenyl)amino)pyrimidin-4-yl)-2,7-diazaspiro[4.5]decan-2-yl)methanone] | > 5 µM | 
COCCOc1ccc(Nc2ncc(F)c(N3CC4CN(C(=O)c5ccc(C(C)(C)C)cc5)CC4C3)n2)cc1 (stereo not shown) [Compound 18, (4-(tert-butyl)phenyl)(5-(5-fluoro-2-((4-(2-methoxyethoxy)phenyl)amino)pyrimidin-4-yl)hexahydropyrrolo[3,4-c]pyrrol-2(1H)-yl)methanone] | > 5 µM | 
COCCOc1ccc(Nc2ncc(F)c(N3CCC4CN(C(=O)c5ccc(C(C)(C)C)cc5)CC43)n2)cc1 (stereo not shown) [Compound 20, (4-(tert-butyl)phenyl)(1-(5-fluoro-2-((4-(2-methoxyethoxy)phenyl)amino)pyrimidin-4-yl)hexahydropyrrolo[3,4-b]pyrrol-5(1H)-yl)methanone] | > 5 µM | 
COCCOc1ccc(Nc2ncc(F)c(N3CCCC4(CCCN(C(=O)c5ccc(C(C)(C)C)cc5)C4)C3)n2)cc1 (stereo not shown) [Compound 21, (4-(tert-butyl)phenyl)(8-(5-fluoro-2-((4-(2-methoxyethoxy)phenyl)amino)pyrimidin-4-yl)-2,8-diazaspiro[5.5]undecan-2-yl)methanone] | > 5 µM | 
COCCOc1ccc(Nc2ncc(F)c(N[C@@H]3CCC[C@@H](NC(=O)c4ccc(C(C)(C)C)cc4)C3)n2)cc1 [Compound 22, 4-(tert-butyl)-N-((1R,3R)-3-((5-fluoro-2-((4-(2-methoxyethoxy)phenyl)amino)pyrimidin-4-yl)amino)cyclohexyl) benzamide] | < 0.1 µM | 
COCCOc1ccc(Nc2ncc(F)c(N[C@H]3CCC[C@H](NC(=O)c4ccc(C(C)(C)C)cc4)C3)n2)cc1 [Compound 23, 4-(tert-butyl)-N-((1S,3S)-3-((5-fluoro-2-((4-(2-methoxyethoxy)phenyl)amino)pyrimidin-4-yl)amino)cyclohexyl)benzamide] | 1 to 5 µM | 
COCCOc1ccc(Nc2ncc(F)c(N[C@H]3CCC[C@H](NC(=O)c4ccc(C(C)(C)C)cc4)[C@H]3O)n2)cc1 [Compound 25] | 1 to 5 µM | 
